This note sets out measurements from US9334267B2, “RAF inhibitor compounds” (Deciphera Pharmaceuticals, LLC, priority 2012, dated 2016).

Data set [1] relates to phospho-ERK in A375 (BRAF V600E) xenograft. Put plainly: A375 mouse xenograft pharmacodynamic assay (tumor phospho-ERK by ELISA). In kind it is in vivo. The settings on record: A375 xenografts in nude female mice, 20 mg/kg oral (gavage), vs vehicle. Here is the method:
To evaluate the in vivo pharmacodynamic (PD) effects of compounds of Formula I, an A375 (BRAF V600E) xenograft model is employed. Briefly, 10×10^6 A375 tumor cells (ATCC) are prepared in a 1:1 matrigel mix (0.2 mL total volume) and implanted by subcutaneous injection in hind leg of nude female mice. A total of 4 mice each for each dosing group are employed. Treatment is initiated with oral administration (gavage) of test compound or vehicle (20% captisol, 25 mM phosphate, pH2.0) in 0.2 mL volume when average tumor size reaches approximately 300 mg. After a fixed time interval, the tumors are harvested and the phospho-ERK levels are measured by ELISA (Enzyme-linked immunosorbent assay). Treated groups are compared to the vehicle control group to calculate % inhibition.

The test system of data set [2] is phospho-ERK in HCT-116 cells. The experiment in a line: HCT-116 cell pERK assay (AlphaScreen SureFire). In kind it is cell-based. The settings on record: Homo sapiens, B-Raf wild type, K-Ras mutation, 4 hours, range over the listed examples, read-out: phospho-ERK signal IC50. Here is the method: Examples of Formula I are tested against HCT-116 cells harboring wild type B-Raf and K-Ras mutation. The phospho-ERK activities are evaluated as described below.
HCT-116 cells (catalog #CCL-247) are obtained from the American Type Culture Collection (ATCC, Manassas, Va.). Briefly, cells are grown in McCoy's 5A supplemented with 10% characterized fetal bovine serum (Invitrogen, Carlsbad, Calif.), and 1% Penicillin/Streptomycin/L-Glutamine at 37 degrees Celsius, 5% CO2, and 95% humidity. Cells are allowed to expand until reaching 75-90% confluency at which point they are subcultured or harvested for assay use. HCT-116 cells suspended in complete media are added to 384-well tissue culture treated plates (3×10^5 cells/mL; 7,500 cells per well). The cells are incubated overnight at 37 degrees Celsius, 5% CO2, and 95% humidity. Next, test compound or DMSO diluted in complete media is added to the wells (0.25% final DMSO concentration). The plates are then incubated for 4 hours at 37 degrees Celsius, 5% CO2, and 95% humidity. Following compound incubation, the cells are lysed at 4° C. for 20 minutes with shaking. Cell lysates are centrifuged and the supernatant is transferred to a new plate. An aliquot of each lysate is transferred to a white 384-well assay plate. Using the AlphaScreen SureFire pERK kit (Perkin-Elmer, Waltham, Mass.), an acceptor bead mixture is added to each well and incubated for 2 h at room temperature in the dark. A donor bead mixture is then added to each well and incubated for 2 h at room temperature in the dark. Plates are read using a Synergy2 plate reader (Biotek, Winooski, Vt.) in Plate Mode with Timing Control. Read: (F)1: excitation: 680/30 nm, emission: Plug. 2: Excitation: Plug, emission: 570/100 nm. Top mirror 635 nm. Data is analyzed using Prism software (Graphpad, San Diego, Calif.) to calculate IC50 values and Excel software (Microsoft, Redmond, Wash.) to calculate stimulation compared to control.
(Bead proximity is the source of the signal in Alpha formats.)

In data set [3] the test system is A375 V600E xenograft tumor. Put plainly: A375 rat xenograft efficacy model. Type of data set: in vivo, rats. The settings on record: orally twice a day at 10 and 20 mg/kg for 21 days. Here is the method:
To further evaluate in vivo activity of compounds of Formula I, A375 V600E (ATCC) and HCT-116 K—Ras mutant B-Raf wild type (ATCC) xenograft tumor models are used. Briefly, 10×10^6 cells (A375) or 5×10^6 cells (HCT-116) in a 1:1 medium and matrigel mix (0.2 mL total volume) are implanted by subcutaneous injection in the hind leg of nude female rats (NIH model No. NIHRNU-M from Taconic). A total of 8 rats in each group are used for the efficacy study, and a total of 3-4 rats in each group are used for a pharmacodynamic study. Treatment is initiated with oral administration (gavage) of test compound or vehicle (20% Captisol®, 25 mM phosphate, pH 2.0) in 0.6 mL volume when tumor size reaches approximately 500 mg. Test compound is orally dosed twice a day for 21 days. Tumor growth and body weight are monitored over time to evaluate activity and signs of toxicity. Bidimensional measurements of tumors are performed twice a week and tumor volumes are calculated based on mid-axis length and mid-axis width. Tumor volume data are transformed to a log scale to equalize variance across time and treatment groups. The log volume data are analyzed with a two-way repeated measures analysis of variance by time and treatment using the MIXED® procedures in SAS® software (version 8.2). The correlation model for the repeated measures is spatial power. […]

Structures are written as SMILES.

For the compound `CNc1ncc2cc(-c3cc(NC(=O)NCCC(C)(C)C)c(F)cc3F)c(C)nc2n1` [Example 1, 1-(2,4-Difluoro-5-(7-methyl-2-(methylamino)pyrido[2,3-d]pyrimidin-6-yl)phenyl)-3-(3,3-dimethylbutyl)urea], the “Measured pERK inhibition 2 h post dose” value in data set [1] was determined as 54% inhibition.

As to `CNc1ncc2cc(-c3ccc(F)c(NC(=O)NCCC(C)(C)C)c3)c(C)nc2n1` [Example 2, 1-(3,3-Dimethylbutyl)-3-(2-fluoro-5-(7-methyl-2-(methylamino)pyrido[2,3-d]pyrimidin-6-yl)phenyl)urea], the “Measured pERK inhibition 2 h post dose” value in data set [1] is on record as 38% inhibition.

For the compound `CNc1ncc2cc(-c3cc(NC(=O)NCCC(C)(C)F)c(F)cc3C)c(C)nc2n1` [Example 4, 1-(3-Fluoro-3-methylbutyl)-3-(2-fluoro-4-methyl-5-(7-methyl-2-(methylamino)pyrido[2,3-d]pyrimidin-6-yl)phenyl)urea], in data set [1], the “Measured pERK inhibition 2 h post dose” value is listed as 84% inhibition.

As for `COCCNc1ncc2cc(-c3cc(NC(=O)NCCC(C)(C)C)c(F)cc3C)c(C)nc2n1` [Example 5, 1-(3,3-Dimethylbutyl)-3-(2-fluoro-5-(2-((2-methoxyethyl)amino)-7-methylpyrido[2,3-d]pyrimidin-6-yl)-4-methylphenyl)urea], the “Measured pERK inhibition 2 h post dose” value in data set [1] is given as 77% inhibition.

Broadly, the IC50 is the point on the concentration scale where inhibition reaches its midpoint. `CNc1ncc2cc(-c3cc(NC(=O)NCCC4(C)CC4)c(F)cc3C)c(C)nc2n1` [Example 24, 1-(2-Fluoro-4-methyl-5-(7-methyl-2-(methylamino)pyrido[2,3-d]pyrimidin-6-yl)phenyl)-3-(2-(1-methylcyclopropyl)ethyl)urea]: the “Measured pERK inhibition 2 h post dose” value in data set [1] is on record as 88% inhibition. For the same compound, the concentration for half-maximal inhibition (IC50) in data set [2] fell in the range of 2 to 472 nM. The tumor growth result in data set [3] (both dosing groups) was “tumor growth inhibition and tumor growth regression”. In data set [3] (either group), the animal body weight result is reported as “no animal body weight loss”.

As for `Cc1cc(F)c(NC(=O)NCCC(C)(C)F)cc1-c1cc2cnc(NC3COC3)nc2nc1C` [Example 25, 1-(3-Fluoro-3-methylbutyl)-3-(2-fluoro-4-methyl-5-(7-methyl-2-(oxetan-3-ylamino)pyrido[2,3-d]pyrimidin-6-yl)phenyl)urea], in data set [2], the IC50 lay in the range of 2 to 472 nM.

On to `CNc1ncc2cc(-c3cc(NC(=O)NCCC(C)(C)F)c(F)cc3C)cnc2n1` [Example 34, 1-(3-Fluoro-3-methyl-butyl)-3-[2-fluoro-4-methyl-5-(2-methylaminopyrido[2,3-d]pyrimidin-6-yl)phenyl]urea], for which, in data set [1], the “Measured pERK inhibition 2 h post dose” value was determined as 72% inhibition.

In the case of `CNc1ncc2cc(-c3cc(NC(=O)NCCC(C)(C)C)c(F)cc3C)cnc2n1` [Example 35, 1-(3,3-Dimethylbutyl)-3-[2-fluoro-4-methyl-5-(2-methylaminopyrido[2,3-d]pyrimidin-6-yl)phenyl]urea], the “Measured pERK inhibition 2 h post dose” value in data set [1] is reported as 79% inhibition. Further, the 50% inhibitory concentration (IC50) in data set [2] is 2 to 472 nM.
